Measured values: patent US9028845B2, “Chimeric immunomodulatory compounds and methods of using the same-IV” (Dynavax Technologies Corporation, priority 2001, dated 2015)
“Also recorded” adds a separate entry of the source.

Legend:
human PBMCs = test: Human PBMC cytokine response assay (IFN-γ and IFN-α in cell-free medium by ELISA), with or without cPLGA; format: cell-based;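 as to IFN-α (pg/ml) mean: 20 µg/mL compound for 24 hours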;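 as to IFN-γ (pg/ml) mean: 20 µg/mL compound for 24 hours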
mice = test: Serum cytokines (IL-12 p40, IL-6, TNF-α) after subcutaneous injection in mice; format: in vivo; details: 20 ug subcutaneous, blood 2 hours later
Procedure: Blood was collected 2 hours later. For the LPS positive control group, mice were injected intraperitoneally with a 200 ul volume, and blood was collected 1.5 hours later (i.e., at the peak of LPS induced TNF-α activity). The blood was clotted and the serum was prepared and stored at −80° C. until assayed. Serum cytokines were assayed using Biosource cytoscreen kits for TNF-α and Pharmingen antibody pairs for mIL-6 and mIL-12. All samples were assayed in duplicate.

PBMCs = test: Human PBMC proliferation assay (3H-thymidine incorporation); format: cell-based; details: Experiment A; for mean cpm: 2 μg/ml
CD19+ B cells = test: Human B cell proliferation assay (3H-thymidine incorporation); details: 2 μg/ml
[1] = Table 25, mean of donors 28250-28253
[2] = mean of Donors 1-2, 20 μg/ml, 24 h
[3] = mean of Donors 3-4, 20 μg/ml, 24 h
[4] = B cells, Donor 146, Experiment A
[5] = B cells, Donor 147, Experiment A

Substance: 5′-TCGTCGA-3′ [Compound P-1, reference compound]
- IFN-α (pg/ml) Donor 1 (human PBMCs; Donor 1, 20 μg/ml, 24 h): 0 pg/mL
- IFN-γ (pg/ml) Donor 1 (human PBMCs; Donor 1, 20 μg/ml, 24 h): 8 pg/mL
- IFN-α (pg/ml) Donor 2 (human PBMCs; Donor 2, 20 μg/ml, 24 h): 0 pg/mL
- IFN-γ (pg/ml) Donor 2 (human PBMCs; Donor 2, 20 μg/ml, 24 h): 0 pg/mL
- IFN-α (pg/ml) Donor 3 (human PBMCs; Donor 3, 20 μg/ml, 24 h): 0 pg/mL
- IFN-γ (pg/ml) Donor 3 (human PBMCs; Donor 3, 20 μg/ml, 24 h): 1 pg/mL
- IFN-α (pg/ml) Donor 4 (human PBMCs; Donor 4, 20 μg/ml, 24 h): 32 pg/mL
- IFN-γ (pg/ml) Donor 4 (human PBMCs; Donor 4, 20 μg/ml, 24 h): 4 pg/mL
- IFN-a (human PBMCs; Table 25, donor 28250): 16 pg/mL
- IFN-g (human PBMCs; Table 25, donor 28250, polynucleotides/spacers at amounts equivalent to the CIC, spacers alone 9 uM): 54 pg/mL
- IFN-a (human PBMCs; Table 25, donor 28251): 16 pg/mL
- IFN-g (human PBMCs; Table 25, donor 28251): 21 pg/mL
- IFN-a (human PBMCs; Table 25, donor 28252): 16 pg/mL
- IFN-g (human PBMCs; Table 25, donor 28252): 56 pg/mL
- IFN-a (human PBMCs; Table 25, donor 28253): 16 pg/mL
- IFN-g (human PBMCs; Table 25, donor 28253): 1 pg/mL
- IFN-a mean (human PBMCs; [1]): 16 pg/mL
- IFN-g mean (human PBMCs; [1]): 33 pg/mL
- IFN-α (pg/ml) mean (human PBMCs; [2]): 0 pg/mL
- IFN-γ (pg/ml) mean (human PBMCs; [2]): 4 pg/mL
- IFN-α (pg/ml) mean (human PBMCs; [3]): 16 pg/mL
- IFN-γ (pg/ml) mean (human PBMCs; [3]): 2 pg/mL
- immunomodulatory activity (IFN-γ / IFN-α secretion), in words (human PBMCs; used alone (no cPLGA)): no activity; also recorded: did not have immunomodulatory activity
- induction of serum IL-12 p40, IL-6 and TNF-α, in words (mice): inactive
- cpm1 (PBMCs; Donor 146, 2 μg/ml): 9724 cpm
- cpm2 (PBMCs; Donor 146, 2 μg/ml): 3041 cpm
- cpm3 (PBMCs; Donor 146, 2 μg/ml): 2425 cpm
- mean cpm (PBMCs; Donor 146 mean): 5063 cpm
- cpm1 (PBMCs; Donor 147, 2 μg/ml): 1706 cpm
- cpm2 (PBMCs; Donor 147, 2 μg/ml): 1960 cpm
- cpm3 (PBMCs; Donor 147, 2 μg/ml): 324 cpm
- mean cpm (PBMCs; Donor 147 mean): 1330 cpm
- mean of both (PBMCs; mean of Donors 146 and 147, 2 μg/ml): 3197 cpm
- B cell proliferation, in words (CD19+ B cells; 48 h plus 8 h 3H-thymidine pulse): little to no B cell proliferation
- cpm1 (CD19+ B cells; [4]): 761 cpm
- cpm2 (CD19+ B cells; [4]): 608 cpm
- cpm3 (CD19+ B cells; [4]): 721 cpm
- mean cpm (CD19+ B cells; B cells, Donor 146 mean, Experiment A): 697 cpm
- cpm1 (CD19+ B cells; [5]): 569 cpm
- cpm2 (CD19+ B cells; [5]): 460 cpm
- cpm3 (CD19+ B cells; [5]): 687 cpm
- mean cpm (CD19+ B cells; B cells, Donor 147 mean, Experiment A): 572 cpm
- mean of both (CD19+ B cells; B cells, mean of Donors 146 and 147, Experiment A): 634 cpm
